Where two headings read alike, the source gives them in different places.
Assays:
Assay type in all cases: cell-based, human
[1] = tested on: DuCaP prostate cancer cell; experiment: Cell titer blue assay of cell number after TSA treatment; conditions: 48 h incubation, 384-well plates 2000 cells/well
Procedure: (§1) FIG. 6. Analysis of the effect of Trichostatin A (TSA) treatment on VCaP and DuCaP prostate cancer cell number by using cell titer blue assay. Briefly, cells were plated in low concentration on 384-well plates (2000 cells/well) and let to attach overnight. Drug containing medium was added and CTB assay measurement with Envision Plate reader were done after 48 h incubation. […] For drawing the figure, cell culture medium only containing well intensities were extracted from actual measurements. Each data point is represented by the mean value of three independent measurements (mean+S.D.). Drug concentrations are presented on x-axis and relative cell number (control level set to 1) on y-axis. Statistical significance ([…]) of the differences between cell amounts in treated wells in comparison to untreated control wells is indicated with star using Student's t-test assuming that the data is unpaired and variance is unequal.

[2] = tested on: VCaP prostate cancer cell; experiment: as above; conditions: 48 h incubation, 384-well plates 2000 cells/well
Procedure: as §1

ERG gene signature = experiment: Bead-array gene expression with GSEA of ERG gene signature reversal; conditions: 12 h treatment, 300 nM TSA or 500 nM MS-275
Procedure: (§2) Gene expression analysis by bead-arrays. Early passage VCaP and LNCaP cells were grown to approximately 70% confluence before treatments with 300 nM trichostatin A (Sigma) or 500 nM MS-275 (Sigma) for 6 and 12 hours. For androgen ablation, the cells were plated in androgen-deprived medium. 300 nM trichostatin A (Sigma) or 500 nM MS-275 (Sigma) were added for 6 hours and 12 hours before harvesting. Hormone-replacement treatment was performed by supplementing the full RPMI 1640 medium with 10% charcoal-stripped serum. Total RNA was extracted according to the manufacturer's protocol using Trizol reagent (Invitrogen, Carlsbad, Calif.). Integrity of the RNA prior to hybridization was monitored using a Bioanalyzer 2100 (Agilent, Santa Clara, Calif.) (according to manufacturer's instruction). 500 ng of purified total RNA was amplified with the TotalPrep Kit (Ambion, Austin, Tex.) and the biotin labelled cRNA was hybridized to Sentrix HumanRef-8 Expression BeadChips (Illumina, San Diego, Calif.). The arrays were scanned with the BeadArray Reader (Illumina).
Statistical analysis. The raw data was quantile-normalized and analyzed by using the R/Bioconductor software (http://www.r-project.org/, http://www.bioconductor.org/). Mean for ERG signature genes for at least two replicates per condition was calculated and the treatment values were extracted from controls to illustrate the fold changes presented on Table 5. Gene set enrichment analysis (GSEA) was performed for the HDAC inhibitor treatment and androgen ablation data with the GSEA software v2.0.1 (http://www.broad.mit.edu/gsea/). Our own previously defined ERG gene signature was used to evaluate the statistical significance of the signature reversal by HDAC inhibitors and androgen ablation (Table 6.). MSigDB gene sets were used for studying the pathways affected by HDAC inhibitors TSA and MS-275 in ERG-positive prostate cancer cell line VCaP (FIGS. 12 and 13).

[3] = tested on: ERG-positive prostate cancer cell line VCaP; experiment: Bead-array gene expression with GSEA of MSigDB pathways
Procedure: as §2, with “500 ng of purified total RNA was amplified with the TotalPrep Kit (Ambion, Austin, Tex.) and the biotin labelled cRNA was hybridized to Sentrix HumanRef-8 Expression BeadChips (Illumina, San Diego, Calif.).” left out
Statistical analysis. The raw data was quantile-normalized and analyzed by using the R/Bioconductor software (http://www.r-project.org/, http://www.bioconductor.org/). Mean for ERG signature genes for at least two replicates per condition was calculated and the treatment values were extracted from controls to illustrate the fold changes presented on Table 5. […]

Row | SMILES | effect on cell number (relative cell number, cell titer blue assay) [1] | effect on cell number (relative cell number, cell titer blue assay) ([1]; listed as Trichostatin A) | effect on cell number (relative cell number, cell titer blue assay) [2] | effect on cell number (relative cell number, cell titer blue assay) ([2]; listed as Trichostatin A) | ES (Enrichement score) (ERG gene signature) | Gene set (number of genes showing core enrichment/total number of genes in the ERG gene set) (ERG gene signature) | NES (Normalized enrichment score) (ERG gene signature) | effect on pathways associated to ERG-positive prostate tumors ([3]; VCaP, GSEA with MSigDB gene sets) | effect on pathways associated to ERG-positive prostate tumors [3]
1 | CC(/C=C/C(=O)NO)=C\[C@@H](C)C(=O)c1ccc(N(C)C)cc1 [TSA, Trichostatin A] | clear dose dependent growth inhibition | strong responses | clear dose dependent growth inhibition | strong responses | −0.75 | 29/47 | −1.63 | reverses the pathways associated to ERG-positive prostate tumors | –
2 | Nc1ccccc1NC(=O)c1ccc(CNC(=O)OCc2cccnc2)cc1 [MS-275] | – | – | – | – | – | – | – | – | reverses the pathways associated to ERG-positive prostate tumors

Source: patent publication US20100215638A1, “METHOD FOR TREATMENT OF PROSTATE CANCER AND SCREENING OF PATIENTS BENEFITING FROM SAID METHOD” (VALTION TEKNILLINEN TUTKIMUSKESKUS, priority 2006, published 2010)
